From patent US12256737B2, “Preparation method and application of water-soluble chlorhexidine hyaluronate antibacterial agents” (Jiangnan University, priority 2022, dated 2025)
Converted amounts (≈) assume the structure as drawn.

Legend:
L-929 mouse fibroblasts = assay type: cell-based
Method: A cytotoxicity test of the hyaluronic acid chlorhexidine, for example the hyaluronic acid chlorhexidine (HAL-CHD) of example 4, specifically included the following steps: • L-929 mouse fibroblasts were digested and the cell suspension concentration was adjusted to 0.5-1 million/mL. 100 μL of the cell suspension was added into each well of a 96-well plate with […]. The wells at the edge of the 96-well plate were filled with a culture solution. The cells were cultured overnight in a 5% CO2 incubator at 37° C. Three samples of HAL-CHD-1 (1 MIC), HAL-CHD-3 (3 MIC) and HAL-CHD-5 (5 MIC) at the concentration gradients of 10 μL or less were respectively added, and 5 replicates were prepared for each concentration gradient. At the same time, a zero-setting well (containing a culture medium and CCK-8) was set. The 96-well plate was incubated in a 5% CO2 incubator at 37° C. After 24 h, 48 h and 72 h, 10 μL of a CCK-8 reagent was added. The reaction was performed in the incubator for 3 h and the absorbance was measured using a microplate reader at the wavelength of 450 nm.

S. aureus = experiment: In-vitro antimicrobial experiment (MIC, 96-well broth dilution); assay type: cell-based, Staphylococcus aureus; conditions: 37° C., 24 h; for MIC: LB liquid medium
Method: (§1) An in-vitro antimicrobial experiment of the chlorhexidine antimicrobial disinfectant was performed according to the following steps: • in a sterile super clean bench, the chlorhexidine antimicrobial disinfectants were separately prepared into 10 mg/ml solutions. A 96-well plate was taken and 100 μL of an LB liquid medium was injected into each well plate. Two rows in the same 96-well plate were respectively used as a sterile control and a drug-free control, 100 μL of the prepared chlorhexidine antimicrobial disinfectant solution was injected into the first column of the rest rows, two rows of each chlorhexidine antimicrobial disinfectant solution were injected as two groups of a parallel test, 100 μL of the uniformly mixed solution was injected into the right side well, the step was repeated until 12 columns of the wells were filled, and 100 μL of the solution was extracted from the last column and discarded. The previously cultured E. coli and S. aureus were diluted to a desired concentration of 1×10^6 CFU/mL using the LB liquid medium. 100 μL of the above-mentioned bacterial solution was injected into each well of the rows injected with the chlorhexidine antimicrobial disinfectant and the drug-free control row in the same plate. Then the plate was placed into a biochemical incubator to be cultured at 37° C. for 24 h. The plate was taken out and the change of the turbidity degree of each well was observed. […] It was observed by naked eyes that the lowest concentration of the antimicrobial agent in the clear wells where no bacteria grew was the minimum inhibitory concentration (MIC) of the tested bacteria.

E. coli = experiment: as above; assay type: cell-based, Escherichia coli; conditions: 37° C., 24 h; for MIC: LB liquid medium
Method: as §1

Water solubility test = assay type: physicochemical; conditions: deionized water, 25° C., 500 mg sample in 1 ml
Method: A method for testing the water solubility of the chlorhexidine antimicrobial disinfectant included the following steps: • 1 ml of deionized water was added to 500 mg of a sample to be tested and the sample was fully dissolved at 25° C. If an insoluble component existed, an insoluble portion suspended in the solution. After the solution was centrifuged in a centrifuge (rate of 5,000 r/min) for 5 min, the residual solid was washed 3 times in acetone and then dried in a vacuum oven for 24 h, and after the solid was completely dried, the solid was weighed and recorded as W1.
The solubility was calculated as follows: • solubility (mg/ml)=(500−W1)/1 • where W1 is the mass (mg) of the undissolved solid.

Photostability test = assay type: physicochemical; conditions: fluorescent lamp
Method: A photostability test of the hyaluronic acid chlorhexidine, for example the hyaluronic acid chlorhexidine (HA8-CHD) prepared in example 2, was performed according to the following steps: • a sample to be detected was exposed in an illumination box provided with a fluorescent lamp for 5 days and taken on 1st day, 3rd day and 5th day. Items (appearance, mass, 1H NMR spectrum detection, and antimicrobial performance) were mainly detected according to stability, especially the appearance change of the sample was particularly required to be noticed.

hyaluronic acid chlorhexidine [HAL-CHD]
cell viability versus control group (L-929 mouse fibroblasts): higher that of the control group

hyaluronic acid chlorhexidine [HA4-CHD]
MIC, corresponding mass concentration (S. aureus): 1,250 μg/mL
MIC (S. aureus): 0.8 µmol/mL
MIC, corresponding mass concentration (E. coli): 1,667 μg/mL
MIC (E. coli): 1.1 µmol/mL

CC(=O)O.CC(=O)O.NC(=N\CCCCCC/N=C(N)/N=C(\N)Nc1ccc(Cl)cc1)/N=C(\N)Nc1ccc(Cl)cc1 [AA-CHD, chlorhexidine acetate]
Water solubility (Water solubility test): 19.05 mg/mL

hyaluronic acid chlorhexidine [HA8-CHD]
antimicrobial performance after illumination (Photostability test; after illumination): not obviously reduced
appearance versus freshly prepared sample (Photostability test; within 5 days of illumination): no significant difference in appearance
mass versus freshly prepared sample (Photostability test; within 5 days of illumination): no significant change in the mass
structure characterization (1H NMR) versus freshly prepared sample (Photostability test; within 5 days of illumination): no significant difference in the structure characterization
Water solubility (Water solubility test): ≥500 mg/mL

N=C(NCCCCCCNC(=N)NC(=N)Nc1ccc(Cl)cc1)NC(=N)Nc1ccc(Cl)cc1.O=C(O)[C@H](O)[C@@H](O)[C@H](O)[C@H](O)CO.O=C(O)[C@H](O)[C@@H](O)[C@H](O)[C@H](O)CO [GA-CHD, chlorhexidine gluconate, reference compound]
MIC (S. aureus): 0.7 µmol/mL
Water solubility (Water solubility test): ≥500 mg/mL
MIC (E. coli): 0.9 µmol/mL

[H]/N=C(\N/C(=N/[H])NCCCCCCNC(=N)NC(=N)Nc1ccc(Cl)cc1)Nc1ccc(Cl)cc1 [CHD, 1,6-bis(p-chlorophenyldiguanido)hexane]
solubility (Water solubility test; thermodynamic from solid): 850 µg/mL (≈ 1680 µM)
